Test results as given in US7495023B2, “Thio semicarbazone and semicarbozone inhibitors of cysteine proteases and methods of their use” (The Regents of the University of California, priority 2002, dated 2009).
Read-outs that look alike come from different tables or passages of the source.

Key:
[1] = target: T. cruzi cathepsin L-like protease (cruzain) (Trypanosoma cruzi, UniProt P25779); assay: biochemical
Procedure: IC50 Determinations. Inhibitors were screened for effectiveness against the T. cruzi cathepsin L-like protease (cruzain) using purified recombinant protein. Cruzain (1 nM) was incubated with 20-50000 nM inhibitor in 100 mM sodium acetate-5 mM DTT buffer (pH 5.50, buffer A) for 5 min at room temperature. […] The increase in fluorescence (excitation at 355 nm and emission at 460 nm) was followed with an automated microtiter plate spectrofluorimeter (Molecular Devices, spectraMAX Gemini). Inhibitor stock solutions were prepared at 20 mM in DMSO, and serial dilutions were made in DMSO (0.7% DMSO in assay). Controls were performed using enzyme alone and enzyme with DMSO. IC50 values were determined graphically using inhibitor concentrations in the linear portion of a plot of inhibition versus log [I] (seven concentrations were tested, and at least two were in the linear range).

[2] = target: cruzain (Trypanosoma cruzi, UniProt P25779); type: biochemical; details: incubation 90 s to 24 h
Sequence of cruzain (P25779 123-467): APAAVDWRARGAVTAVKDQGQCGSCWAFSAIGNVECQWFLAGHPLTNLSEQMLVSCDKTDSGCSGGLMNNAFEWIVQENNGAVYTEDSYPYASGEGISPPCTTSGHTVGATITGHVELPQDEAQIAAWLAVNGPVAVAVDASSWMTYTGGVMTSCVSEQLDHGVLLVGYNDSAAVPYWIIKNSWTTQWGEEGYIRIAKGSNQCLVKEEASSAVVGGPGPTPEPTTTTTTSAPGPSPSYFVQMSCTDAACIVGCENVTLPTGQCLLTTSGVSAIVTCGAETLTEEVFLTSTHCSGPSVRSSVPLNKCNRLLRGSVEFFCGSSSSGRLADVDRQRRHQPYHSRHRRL
Procedure: The time dependence of inhibition was determined by incubating cruzain with inhibitors, DMSO, or enzyme alone at room temperature for time points between 90 s and 24 h. The enzymatic activity was determined as above.
A known irreversible inhibitor, K002 (morpholino urea-Phe-homoPhe-vinyl sulfone benzene; Axys Pharmaceuticals Inc., South San Francisco, Calif.), and a known reversible covalent inhibitor, leupeptin, were used as controls for the thio semicarbazones.

[3] = tested on: T. cruzi (Y strain); assay: Anti-trypanosomal cell culture assay, T. cruzi-infected J774 macrophages; type: cell-based; details: inhibitor 10 μM, cultures up to 30 days
Procedure: Drug Screening in Cell Culture. Mammalian cells are routinely cultured in RPMI-1640 medium supplemented with 5-10% heat-inactivated fetal calf serum (FCS) at 37° C. in 5% CO2. The Y strain of T. cruzi is maintained by serial passage in bovine embryo skeletal muscle (BESM) cells. Infectious trypomastigotes are collected from culture supernatants. For drug assays, J774 macrophages were irradiated (5000 rad) and plated onto six-well tissue culture plates 24 h prior to infection with ˜106 trypomastigotes/well. […] Inhibitor stocks (10 mM) in DMSO were stored at 4° C. J774 monolayers treated with a blank containing DMSO are used as a negative control, and monolayers treated with a known trypanocidal inhibitor, 10 μM N-methyl piperazine-Phe-homoPhe-vinyl sulfone phenyl (N-Pip-F-hF-VSPh) acted as a positive control (Engel et al., J. Exp. Med., 188:725-734 (1998)). RPMI medium with or without inhibitor is replaced every 48 h. Cultures are maintained for up to 30 days and monitored daily by contrast phase microscopy. […] The comparative effectiveness of each inhibitor was estimated from plots of the duration of the intracellular cycle of T. cruzi (days) in treated vs untreated control wells.

[4] = 5 min incubation, room temperature, pH 5.50, read-out: IC50 against cruzain

Sequence of T. cruzi cathepsin L-like protease (cruzain) (P25779 123-467): as above

| melting point | SMILES | effect on T. cruzi in cell culture (trypanocidal / trypanostatic / inactive) [3] | further results |
| --- | --- | --- | --- |
| 172.9 to 174.5 °C | NC(=S)N1CCC(c2cccc(Br)c2)=N1 [Compound 4a, 3-(3-Bromophenyl)-2-pyrazoline-1-thiocarboxamide] | – | decrease in activity as compared to 1i (cruzain) ([1]; compared to 1i): 2 fold; time dependence of cruzain inhibition [2]: time-dependent |
| – | NC(=S)N1CCC(c2cccc(Cl)c2)=N1 [Compound 4c, 3-(3-Chlorophenyl)-2-pyrazoline-1-thiocarboxamide] | inactive | – |
| 107.4 to 109.9 °C | CC1CN(C(N)=S)N=C1c1cccc(Br)c1 (stereo not drawn) [Compound 4b, 3-(3-Bromophenyl)-4-methyl-2-pyrazoline-1-thiocarboxamide] | trypanocidal effect | cruzain inhibitory activity, in words [1]: better than that of 1i; IC50 [1, 4]: 80 nM; time dependence of cruzain inhibition [2]: time-dependent |
| 156.6 to 158 °C | CCC(=NN(SC)C(N)=O)c1cccc(Br)c1 [Compound 5a, 3′-Bromopropiophenone N-Methyl Thio Semicarbazone] | – | – |
| 144.5 to 146.2 °C | CC(=NNC(N)=S)c1ccccc1Br [Compound 2l, 2′-Bromoacetophenone Thio Semicarbazone] | – | – |
| 197.5 to 198.8 °C | S=C(Nc1cccc(Cl)c1)N1CCC(c2cccc(Br)c2)=N1 [Compound 5d, 3-(3-Bromophenyl)-2-pyrazoline-1-(IL3-chlorophenyl)thiocarboxamide] | no effect on the parasites | IC50 [1, 4]: 1000 to 2000 nM |
| 175.1 to 176.8 °C | CCC(=NNC(N)=S)c1ccc(Cl)cc1 [Compound 2f, 4′-Chloropropiophenone Thio Semicarbazone] | – | – |
| – | CC(=NNC(N)=S)c1ccc(Cl)c(Cl)c1 [Compound 3h, 3′,4′-Dichloroacetophenone Thio Semicarbazone] | trypanocidal | cruzain inhibitory activity, in words [1]: better IC50 values than 1i |
| – | NC(=S)NN=Cc1cccc(Br)c1 [Compound 3a, 3-Bromobenzaldehyde Thio Semicarbazone] | – | IC50 [1, 4]: 1300 nM; time dependence of cruzain inhibition [2]: time-dependent |
| 171.3 to 173 °C | CCC(=NNC(N)=S)c1ccc(Br)cc1 [Compound 2e, 4′-Bromopropiophenone Thio Semicarbazone] | – | – |
| – | FC(F)(F)c1cccc(NC(=S)N2CCC(c3cccc(Cl)c3)=N2)c1 [Compound 5e, 3-(3-Chlorophenyl)-2-pyrazoline-1-(N-3-tri-fluoromethylphenyl)thiocarboxamide] | – | time dependence of cruzain inhibition [2]: showed time dependency |
| 229.3 to 231.3 °C | CC(=NNC(N)=O)c1cccc(Br)c1 [Compound 6b, 3′-Bromoacetophenone Semicarbazone] | – | – |
| 116.8 to 117.9 °C | CCC(=NNC(N)=S)c1ccccc1 [Compound 2d, Propiophenone Thio Semicarbazone] | – | drop / loss of activity compared to 1i (cruzain) ([1]; compared to 1i): at least 2 orders of magnitude |
| 171.8 to 173 °C | CCC(=NNC(N)=S)c1ccc(Cl)cc1Cl [Compound 2j, 2′,4′-Dichloropropiophenone Thio Semicarbazone] | – | – |
| 170.5 to 171.2 °C | CN(C)c1ccc(C=NNC(N)=S)c2ccccc12 [Compound 1l, 4-Dimethylamino-1-naphthaldehyde Thio Semicarbazone] | – | – |
| – | CCC(=NNC(N)=S)c1cccc(C(F)(F)F)c1 [Compound 2b, 3′-Trifluoromethylpropiophenone Thio Semicarbazone] | trypanocidal | cruzain inhibitory activity, in words [1]: better IC50 values than 1i; IC50 [1, 4]: 50 nM |
| 199.3 to 201.4 °C | NC(=S)N1CCC(c2ccc(Cl)c(Cl)c2)=N1 [Compound 4e, 3-(3,4-Dichlorophenyl)-2-pyrazoline-1-thiocarboxamide] | trypanocidal | cruzain inhibitory activity, in words [1]: better than that of 1i |

| melting point | SMILES | effect on T. cruzi in cell culture (trypanocidal / trypanostatic / inactive) [3] | further results |
| --- | --- | --- | --- |
| – | CC(=O)N[C@@H](CC(C)C)C(=O)N[C@@H](CC(C)C)C(=O)N[C@H](C=O)CCCNC(=N)N [leupeptin, reference compound] | – | time dependence of cruzain inhibition [2]: rapidly time-dependent |
| – | CC(=NNC(N)=S)c1cccc(C(F)(F)F)c1 [Compound 3d, 3-Trifluoromethylacetophenone Thio Semicarbazone] | trypanostatic | – |
| 170.5 to 171.2 °C | CCC(=NNC(N)=S)c1ccc2cc(OC)ccc2c1 [Compound 1k, 6′-Methoxy-2′-propiononaphthone Thio Semicarbazone] | – | – |
| 131.3 °C (dec.) | CC1CN(C(N)=S)N=C1c1cccc(Cl)c1 (stereo not drawn) [Compound 4d, 3-(3-Chlorophenyl)-4-methyl-2-pyrazoline-1-thiocarboxamide] | trypanocidal | – |
| – | CCC(NNC(N)=S)c1cccc(Br)c1 (stereo not drawn) [Compound 7a, 1-(3′-bromophenyl)propylaminothiourea] | – | cruzain inhibitory activity, in words [1]: poor activity; time dependence of cruzain inhibition [2]: showed time dependency |
| – | CC(=NNC(N)=S)c1cccc(Br)c1 [Compound 3b, 3′-Bromoacetophenone Thio Semicarbazone] | trypanocidal effect | IC50 [1, 4]: 200 nM; time dependence of cruzain inhibition [2]: time-dependent |
| 138.8 to 139.5 °C | CCC(=NNC(N)=S)c1cccc(F)c1 [Compound 2c, 3′-Fluoropropiophenone Thio Semicarbazone] | – | – |
| 159.2 to 161.1 °C | NC(=S)N1CCC(c2cccc(C(F)(F)F)c2)=N1 [Compound 4g, 3-(3-Trifluoromethylphenyl)-2-pyrazoline-1-thiocarboxamide] | inactive | cruzain inhibitory activity, in words [1]: better than that of 1i |
| 192.1 to 194.8 °C | NC(=O)NN=Cc1ccc(-c2cccc(Cl)c2)o1 [Compound 6c, 5-(3-Chlorophenyl)-2-furancarboxaldehyde Semicarbazone] | – | – |
| 117.8 to 119.8 °C | CCC(=NNC(N)=S)c1ccc(OC)cc1 [Compound 2g, 4′-Methoxypropiophenone Thio Semicarbazone] | – | – |
| – | CC(=NNC(N)=S)c1cc(C(F)(F)F)cc(C(F)(F)F)c1 [Compound 3f, 3′,5′-Bis(trifluoromethyl)acetophenone Thio Semicarbazone] | trypanostatic | cruzain inhibitory activity, in words [1]: better IC50 values than 1i |
| – | CCC(=NNC(N)=S)c1cc(C(F)(F)F)cc(C(F)(F)F)c1 [Compound 2h, 3′,5′-bis(trifluoromethyl)propiophenone Thio Semicarbazone] | – | cruzain inhibitory activity, in words [1]: better IC50 values than 1i; IC50 [1, 4]: 20 nM; increase in activity over 1i (cruzain) ([1]; compared to 1i): ~5 fold |
| 117 to 118.2 °C | CCCCCCNC(=S)N1CCC(c2cccc(Br)c2)=N1 [Compound 5f, 3-(3-Bromophenyl)-2-pyrazoline-1-(N-hexyl)-thiocarboxamide] | – | IC50 [1, 4]: 1000 to 2000 nM |
| 200.3 to 201.2 °C | Cn1cc(C=NNC(N)=S)c2ccccc21 [Compound 1m, 1-Methylindole-3-carboxaldehyde Thio Semicarbazone] | – | – |
| – | CCC(=NNC(N)=S)c1cccc(Cl)c1 [Compound 2a, 3′-Chloropropiophenone Thio Semicarbazone] | trypanocidal | IC50 [1]: 220 nM |
| 155.8 to 156.7 °C | CC(=NNC(N)=S)c1ccccc1Cl [Compound 2m, 2′-Chloroacetophenone Thio Semicarbazone] | – | – |
| 248.3 to 249.4 °C | NC(=S)NN=Cc1ccccc1C(F)(F)F [Compound 2p, 2-Trifluoromethylbenzaldehyde Thio Semicarbazone] | – | – |

| SMILES | melting point | effect on T. cruzi in cell culture (trypanocidal / trypanostatic / inactive) [3] | further results |
| --- | --- | --- | --- |
| CC1CN(C(N)=S)N=C1c1cccc(C(F)(F)F)c1 (stereo not drawn) [Compound 4h, 3-(3-Trifluoromethylphenyl)-4-methyl-2-pyrazoline-1-thiocarboxamide] | 120.8 to 121.9 °C | trypanocidal | cruzain inhibitory activity, in words [1]: better than that of 1i |
